From US4426378A, “Thyrotropin releasing hormone in therapy of shock and as a central nervous system stimulant” (The United States of America as represented by the …, priority 1981, dated 1984)

Key:
[1] = test system: rats; assay: Tail-flick procedure (thermal stimulus to the tail); type: in vivo; conditions: n=6
Experimental: (§1) To confirm the lack of effect of TRH upon analgesic responses, an additional group of rats was equipped with intravenous cannulae only. One day later, rats were divided into 3 groups (n=6/group). Group one received TRH alone (2.0 mg/kg--a dose with therapeutic effects in shock), group two received morphine sulfate (4 mg per kg) followed by TRH (2.0 mg per kg), and group three got morphine sulfate alone (4.0 mg per kg). Pain latencies were determined by applying a thermal stimulus to the tail, tail-flick procedure, FIG. 4a, and by measuring how long required for a rat to escape from an enclosure with a heated floor (53° C.), FIG. 4b.

[2] = test system: rats subjected to endotoxic shock; assay: Endotoxic shock (E. coli lipopolysaccharide endotoxin i.v.), Experiment No. 1; type: in vivo, male Sprague-Dawley rats; conditions: TRH 2 mg/kg i.v.
From the text: (§2) Tail-artery and external-jugular vein cannulae were implanted in male Sprague-Dawley rats (250-300 g; Zivic-Miller Labs) according to standard surgical techniques. Twenty-four hours later, the arterial cannula were connected to a microtransducer (Narco Biosystems, RP 1500 attached to a Beckman physiograph, type R). This arrangement permitted continuous measurement of blood pressure and heart rate in awake, freely moving rats in their home cages.
A second group of rats was subjected to endotoxic vasogenic, septic) shock by the i.v. administration of Escherichia coli lipopolysaccharide endotoxin (15 mg/kg; Difco, control #654109). In these animals, MAP fell to 67-70 mm Hg, which was approximately 26% (24 mm Hg) below baseline levels of 92.7±1.9 mm Hg (n=22). These rats, randomly divided into two groups, were treated with either i.v. TRH (2 mg/kg, n=13) or an equal volume of i.v. saline (1.0 ml/kg, n=11), followed by a 0.2 ml cannula flush.

[3] = test system: control rats not subjected to shock; assay: Cardiovascular effects of i.v. TRH in control rats not subjected to shock; type: in vivo, male Sprague-Dawley rats; conditions: TRH 2 mg/kg i.v.
From the text: as §2
In control rats which were not subjected to shock, the cardiovascular effects of intravenous (i.v.) TRH alone were determined. A dose of 2 mg/kg body weight TRH (Beckman Labs) was injected, followed by a cannula flush (0.2 ml saline) to ensure complete drug delivery. Cardiovascular parameters were monitored for two hours. TRH administration caused a significant increase in mean arterial pressure (MAP) of 11.1±1.5 mm Hg (n-10, Student's t=7.25, p 0.001), with peak effects observed at 5-minute post-injection and persisting for 30 minutes (FIG. 1).

[4] = test system: rats; assay: Behavioral effects of intravenous TRH (CNS stimulant); type: in vivo
Experimental: (§3) Follow-up studies were performed to evaluate other physiological parameters, TRH dose-response characteristics, and the effect of TRH on endotoxic shock survival in the rat. The experiments were conducted identically as described above in Experiment No. 1 for initial endotoxic shock studies, except heart rate, pulse pressure, respiration rate, and behavioral measures were examined following treatment with intravenous saline or TRH (0.2, 0.63, 2.0, 6.34, or 20.0 mg per kilogram body weight). Survival at 2 hours post drug treatment was also assessed. […] Pressure fell from 98.0±1.3(SE) millimeters of mercury (mm Hg) to 70.7±1.6 (SE) mm Hg, student's t=13.3, p 0.001.
In addition to its effects upon physiological parameters, intravenous TRH also produced a variety of behavioral effects indicative of its action as a CNS stimulant.

[5] = test system: rats subjected to hemorrhagic shock; assay: Hemorrhagic shock, Experiment No. 3; type: in vivo; conditions: TRH 2 mg/kg i.v.
Experimental: Another group of rats was subjected to hemorrhagic shock according to our previous experimental design. In a total of 27 rats, blood was withdrawn from the indwelling external jugular vein cannula; MAP fell from 96.5±1.6 mm Hg to 37.2±1.0 mm Hg where it was maintained for 20 minutes. A total of […] (body weight) of blood was removed, a volume approximating 45% of estimated total blood volume. Following the 20 minutes of controlled oligemia, animals were treated with either i.v. TRH (2 mg/kg, m=15) or an equal volume of i.v. saline (1.0 ml/kg, n=12) followed by a 0.2 ml cannula flush. Shed blood was not returned. […] The duration of this effect was about 30 minutes, approximately equivalent to the duration of the pressor response to TRH in normotensive rats not subjected to shock, FIG. 3a. In this model, saline-treated rats also experienced an increase in MAP, a consequence of the fluid volume infused.

[6] = test system: rats; assay: Escape from enclosure with heated floor (53° C.); type: in vivo
Experimental: as §1

[7] = test system: rats subjected to endotoxic shock; assay: Endotoxic shock follow-up: dose-response, cardiorespiratory variables and survival, Experiment No. 2; type: in vivo, rat; conditions: for pulse pressure / change in mean arterial pressure / respiratory rate / heart rate: 15 min following treatment; for survival, alive/dead: 2 hrs following treatment (saline 4/4)
Experimental: as §3
When saline-control rat mortality was compared to mortality in all TRH-treated animals over the 2 hour measurement interval, there was a significant decrease in the lethal effects of endotoxemia produced by a single injection of this substance (Fisher exact probability, p=0.01).

In the case of `NC(=O)[C@@H]1CCCN1C(=O)[C@H](Cc1c[nH]cn1)NC(=O)[C@@H]1CCC(=O)N1` [TRH, L-pyroglutamyl-L-histidyl-L-proline amide], the “pain latency, tail-flick” value ([1]; TRH alone 2.0 mg/kg i.v.) was “no effect”, the “effect on morphine-induced analgesia, tail-flick” value ([1]; morphine sulfate 4 mg per kg followed by TRH 2.0 mg per kg) was “did not alter the intensity or duration of morphine-induced analgesia” and the “increase in MAP” value ([2]; n=13, average during first 30 minutes post-treatment, endotoxin 15 mg/kg) was 20-25 mm Hg. The “MAP area scores vs saline” value ([2]; triangulation of response-time data, Student's t=5.66, p<0.001) was “significant differences between the two treatment groups”, the “persistence of MAP increase” value ([3]; control rats) was 30 min and the “time of peak effect on MAP post-injection” value ([3]; control rats) was 5 min. For the same compound, the “increase in mean arterial pressure (MAP)” value ([3]; normotensive control rats, n=10) was 11.1±1.5 mm Hg, the “lowest dose at which wet-dog shaking behavior was observed” value ([4]; intravenous TRH) was 0.63 mg per kg and the “tail-rattling, oral "chewing" stereotypies, and piloerection” value ([4]; intravenous TRH 6.34 or 20.0 mg per kg body weight) was “frequently observed”. For the same compound, the “duration of MAP effect” value [5] was “about 30 minutes”, the “MAP higher than saline-control rats” value ([5]; n=15, first 15 minutes following injection) was 20-25 mm Hg and the “MAP area scores vs saline” value ([5]; Student's t=2.11, p<0.05) was “significantly greater”. The “pain latency, escape from heated floor” value ([6]; TRH alone 2.0 mg/kg i.v., n=6, 53° C.) was “no effect”, the “effect on morphine-induced analgesia, escape from heated floor” value ([6]; morphine sulfate 4 mg per kg followed by TRH 2.0 mg per kg, n=6) was “did not alter the intensity or duration of morphine-induced analgesia” and the “TRH dose vs improvement in MAP” value ([7]; 15 minutes following treatment, n=34, r=0.43, p<0.02) was “significant dose-response correlation”. The pulse pressure ([7]; TRH 0.20 mg/Kg IV, n=8, spread ±2.9) was 24.4 mm Hg, the “change in mean arterial pressure” value ([7]; TRH 0.20 mg/Kg IV, n=8, spread ±5.1) was 21.4 mm Hg and the respiratory rate ([7]; TRH 0.20 mg/Kg IV, n=8, spread ±6.8) was 107.0 breaths/min. For the same compound, the heart rate ([7]; TRH 0.20 mg/Kg IV, n=8, spread ±16.8) was 465.0 beats/min, the “survival, alive/dead” value ([7]; TRH 0.20 mg/Kg) was 7/1 and the respiratory rate ([7]; TRH 0.63 mg/Kg IV, n=8, spread ±4.0) was 109.0 breaths/min. For the same compound, the “change in mean arterial pressure” value ([7]; TRH 0.63 mg/Kg IV, n=8, spread ±5.2) was 20.9 mm Hg, the pulse pressure ([7]; TRH 0.63 mg/Kg IV, n=8, spread ±5.7) was 36.2 mm Hg and the heart rate ([7]; TRH 0.63 mg/Kg IV, n=8, spread ±22.4) was 470.0 beats/min. The “survival, alive/dead” value ([7]; TRH 0.63 mg/Kg) was 8/0, the pulse pressure ([7]; TRH 2.00 mg/Kg IV, n=8, spread ±3.9) was 33.1 mm Hg and the “change in mean arterial pressure” value ([7]; TRH 2.00 mg/Kg IV, n=8, spread ±5.1) was 24.2 mm Hg. For the same compound, the respiratory rate ([7]; TRH 2.00 mg/Kg IV, n=8, spread ±6.9) was 125.0 breaths/min, the heart rate ([7]; TRH 2.00 mg/Kg IV, n=8, spread ±24.0) was 517.5 beats/min and the “survival, alive/dead” value ([7]; TRH 2.00 mg/Kg) was 7/1. For the same compound, the “change in mean arterial pressure” value ([7]; TRH 6.34 mg/Kg IV, n=8, spread ±3.7) was 35.1 mm Hg, the pulse pressure ([7]; TRH 6.34 mg/Kg IV, n=8, spread ±4.1) was 37.5 mm Hg and the respiratory rate ([7]; TRH 6.34 mg/Kg IV, n=8, spread ±4.3) was 147.0 breaths/min. The heart rate ([7]; TRH 6.34 mg/Kg IV, n=8, spread ±21.0) was 530.0 beats/min, the “survival, alive/dead” value ([7]; TRH 6.34 mg/Kg) was 8/0 and the “effect on pulse pressure and heart rate” value ([7]; TRH i.v., endotoxic shock) was “increased pulse pressure and heart rate”. For the same compound, the “effect on respiration rate” value ([7]; TRH i.v., endotoxic shock) was “increased in a dose-related manner” and the “survival following endotoxic shock” value ([7]; all TRH-treated vs saline-control, 2 hour interval, single injection, Fisher exact probability p=0.01) was “significantly improved”.
